Results published in patent US9345691B2, “Beta-lactam compounds for enhancing T cell-mediated immune responses” (STEM CELL MEDICINE LTD., priority 2011, dated 2016).
Entries after “also recorded” stand apart in the source; their conditions may differ.

What was measured:
CD4+ human T cells = assay: Human Autoimmune and Inflammatory Response Gene Array, anti-CD3 stimulated T cells; assay type: cell-based; settings: 120 min anti-CD3; for % decrease by Cef.: cefuroxime 50 μg/ml, ±SD, relative to control
Procedure: T cells were purified from the peripheral bloods of healthy human donors (Blood Bank, Sheba Medical center). The whole blood was incubated (20 min, 22° C.) with RosetteSep™ human T cell enrichment mixture (StemCell Technologies, Vancouver, Canada). The remaining unsedimented cells were then loaded onto lymphocyte separation medium (ICN Biomedicals, Irvine, Calif.), isolated by density centrifugation, and washed with PBS. […] In a second round of purification, CD3^+ T cells were labeled for selection with a magnetically coupled mAb against CD4 (Miltenyi Biotec, Auburn, Calif.).
Human CD4 T cells were isolated as described, and incubated in 24 well plates (Nunc), 4×10^6 cells/ml with plate bound anti-human CD3 (OKT3) at 2 μg/ml. The stimulation was performed in RPMI medium supplemented with 0.1% BSA. […] RNA was extracted from samples and used to prepare probes for gene array in accord with the manufacturer's instructions (SuperArray Bioscience, Frederick, Md.). Adequate labeling of the probes was tested before hybridization. Three healthy donors were tested in stimulation with cefuroxime. The membranes were analyzed online with the Image Data Acquisition and Expression Analysis (SuperArray Bioscience).
The Human Autoimmune and Inflammatory Response Gene Array (SuperArray Bioscience corporation, Frederick, Md., USA) was used for analysis of gene expression by the T cells. This array contains 367 genes including cytokines, chemokines and their receptors, transcription factors and signaling proteins. […] Analysis of the results was performed using the GEArray analysis program (www.SuperArray.com). […] To verify the results detected by the gene array study, a panel of six genes was designed and tested by real-time PCR: CCR4, ACVR2, JAK1, STAT4, TLR2 and NFKBIE. The cDNA that was used was prepared from the same RNA used for the gene array experiment.

[1] = test system: encephalitogenic BP10 T-cell line; assay: Adoptive EAE by BP10 line stimulated in vitro with test substance; assay type: in vivo, rat
Text: The ability of a compound to enhance T cell activity may be determined, for example, using an in vivo assay testing the effect of a given compound on the severity of adoptive (passive) EAE, namely, EAE which is induced by the injection of activated encephalitogenic T cell line to the model animal. In order to test a compound, the encephalitogenic T cells are activated in the presence of the compound prior to injection. An exemplary procedure is described in the Examples section hereinbelow.
Antigen-specific T-cell lines were established from lymph node cells that had been stimulated with myelin basic protein (MBP; 10 μg/ml) for 3 days in stimulation medium as described below. Following stimulation, the T-cell blasts were isolated on Lympho-prep (Nycomed Pharma, Oslo, Norway) and seeded in propagation medium. Propagation medium was identical to stimulation medium without autologous serum, but supplemented with fetal calf serum 10% and T-cell growth factors from the supernatant of Con A stimulated spleen cells 10% (Mor et al. (1990) J Clin Invest, 85, 1594-1598). Animals were injected intra-peritoneally with 10^7 MBP-stimulated T cells, following 6-8 cycles of in vitro stimulations. It is known that MBP-reactive lines undergo a reduction in pathogenicity after 6 or more in vitro stimulations. In some experiments the BP10 line was stimulated with phorbol myristate acetate (PMA; 50 ng/ml) and ionomycin (500 ng/ml) for 3 days in stimulation medium, without antigen-presenting cells.
Active EAE was induced by subcutaneous injection of 25 μg guinea-pig MBP (GpMBP) in complete Freund's adjuvant (CFA). CFA was prepared by adding 4 mg/ml Mycobacterium tuberculosis H37Ra (Difco, Mich.) to incomplete Freund's adjuvant (IFA). Adoptive EAE was transferred by intra-peritoneal injection of guinea-pig MBP-activated cells of the BP10 line as described in Mor et al. (1993) J Clin Invest, 92, 2199-2206. […] Clinical scoring was: +1, paralysis of tail; +1.5, paresis of posterior paws and ataxia; +2, paraplegia; +3, paralysis extending to thoracic spine; +4, a moribund state.
Treatment with cefuroxime in vivo could affect many different host agents involved in EAE or AA as well as influencing the rats' bacterial flora. To test whether the antibiotic might directly modify the behavior of effector T cells, an encephalitogenic T-cell line was stimulated in the presence or absence of cefuroxime in vitro. The weakly encephalitogenic BP10 line was used, and was stimulated for 3 days with MBP in the presence or absence of cefuroxime (50 μg/ml). The activated T cells were then washed to remove the antibiotic, the T cells were injected intra-peritoneally into naïve recipient rats (10^7 per rat), and EAE was scored. The BP10 line at later stimulations was used, when its pathogenic potential is reduced, allowing to detect both suppression and enhancement of disease. […] To rule out antigen presenting cells (APC) as the target of the beta-lactam antibiotic, the encephalitogenic BP10 line was stimulated without APC using PMA (50 ng/ml) and Ionomycin (500 ng/ml) in the presence or absence of cefuroxime.

## CO/N=C(\C(=O)N[C@@H]1C(=O)N2C(C(=O)O)=C(COC(N)=O)CS[C@H]12)c1ccco1 [cefuroxime]
CD4+ human T cells; array of 367 genes, 50 μg/ml
  number of genes down-regulated: Fifty-seven
CD4+ human T cells; gene ACTB
  % decrease by Cef.: 49 ± 11%
CD4+ human T cells; gene ACVR1
  % decrease by Cef.: 42 ± 0.7%
CD4+ human T cells; gene ACVR2
  % decrease by Cef.: 60 ± 14.8%
CD4+ human T cells; gene CCL5
  % decrease by Cef.: 21 ± 5.6%
CD4+ human T cells; gene CCL11
  % decrease by Cef.: 18 ± 6.6%
CD4+ human T cells; gene CCR4
  % decrease by Cef.: 39 ± 2%
CD4+ human T cells; gene CCR6
  % decrease by Cef.: 53 ± 5.6%
CD4+ human T cells; gene CCR7
  % decrease by Cef.: 38 ± 8.1%
CD4+ human T cells; gene CD28
  % decrease by Cef.: 51 ± 2.1%
CD4+ human T cells; gene CD40LG
  % decrease by Cef.: 33 ± 7.1%
CD4+ human T cells; gene CREB1
  % decrease by Cef.: 19 ± 4.9%
CD4+ human T cells; gene CREBBP
  % decrease by Cef.: 40 ± 9.9%
CD4+ human T cells; gene CXCL10
  % decrease by Cef.: 39 ± 3%
CD4+ human T cells; gene EGR3
  % decrease by Cef.: 38 ± 2.8%
CD4+ human T cells; gene GFI1
  % decrease by Cef.: 45 ± 14%
CD4+ human T cells; gene HRAS
  % decrease by Cef.: 30 ± 9.8%
CD4+ human T cells; gene IL1B
  % decrease by Cef.: 54 ± 7.0%
CD4+ human T cells; gene IL2RB
  % decrease by Cef.: 50 ± 9.9%
CD4+ human T cells; gene IL2RG
  % decrease by Cef.: 57 ± 9.8%
CD4+ human T cells; gene IL9R
  % decrease by Cef.: 27.5 ± 3%
CD4+ human T cells; gene IL16
  % decrease by Cef.: 50 ± 7.8%
CD4+ human T cells; gene IRAK1
  % decrease by Cef.: 44 ± 2.1%
CD4+ human T cells; gene JAK1
  % decrease by Cef.: 53 ± 13.4%
CD4+ human T cells; gene JUN
  % decrease by Cef.: 49 ± 2.2%
CD4+ human T cells; gene LTA
  % decrease by Cef.: 17 ± 10%
CD4+ human T cells; gene MAP2K4
  % decrease by Cef.: 52 ± 14.1%
CD4+ human T cells; gene MAP3K1
  % decrease by Cef.: 53 ± 12%
CD4+ human T cells; gene MAP3K2
  % decrease by Cef.: 36 ± 12%
CD4+ human T cells; gene MAP3K7
  % decrease by Cef.: 46 ± 9.9%
CD4+ human T cells; gene MAPK9
  % decrease by Cef.: 42 ± 10.9%
CD4+ human T cells; gene NFKB1
  % decrease by Cef.: 43 ± 3.5%
CD4+ human T cells; gene NFKB2
  % decrease by Cef.: 53 ± 10.6%
CD4+ human T cells; gene NFKBIE
  % decrease by Cef.: 63 ± 11%
CD4+ human T cells; gene NFKBIL1
  % decrease by Cef.: 54 ± 12.5%
CD4+ human T cells; gene PAK1
  % decrease by Cef.: 40 ± 2.4%
CD4+ human T cells; gene PIN1
  % decrease by Cef.: 45 ± 12.1%
CD4+ human T cells; gene RANBP5
  % decrease by Cef.: 33 ± 3.5%
CD4+ human T cells; gene REL
  % decrease by Cef.: 45 ± 1.9%
CD4+ human T cells; gene RFX5
  % decrease by Cef.: 36 ± 4.2%
CD4+ human T cells; gene RFXAP
  % decrease by Cef.: 27 ± 12%
CD4+ human T cells; gene SDF2
  % decrease by Cef.: 28 ± 12%
CD4+ human T cells; gene SELL
  % decrease by Cef.: 46 ± 7.0%
CD4+ human T cells; gene SMAD4
  % decrease by Cef.: 47 ± 7.0%
CD4+ human T cells; gene SMAD7
  % decrease by Cef.: 47 ± 4.2%
CD4+ human T cells; gene SP3
  % decrease by Cef.: 39 ± 9.9%
CD4+ human T cells; gene SRF
  % decrease by Cef.: 38 ± 1.9%
CD4+ human T cells; gene STAT1
  % decrease by Cef.: 32 ± 11%
CD4+ human T cells; gene STAT4
  % decrease by Cef.: 47 ± 9.3%
CD4+ human T cells; gene STAT6
  % decrease by Cef.: 47 ± 7.9%
CD4+ human T cells; gene TGFBR3
  % decrease by Cef.: 44 ± 3.5%
CD4+ human T cells; gene TGIF
  % decrease by Cef.: 43 ± 3.5%
CD4+ human T cells; gene TLR2
  % decrease by Cef.: 52 ± 14%
CD4+ human T cells; gene TNFRSF11A
  % decrease by Cef.: 43 ± 2%
CD4+ human T cells; gene TNFα
  % decrease by Cef.: 29 ± 8.5%
CD4+ human T cells; gene TRAF5
  % decrease by Cef.: 43 ± 2.2%
CD4+ human T cells; gene TRAF6
  % decrease by Cef.: 43 ± 3.5%
CD4+ human T cells; gene YY1
  % decrease by Cef.: 23 ± 9.1%
[1]; BP10 line stimulated 3 days with MBP in presence of 50 μg/ml, 10^7 cells IP per rat
  severity of adoptive EAE: markedly enhanced the manifestations of EAE; also recorded: enhanced EAE severity; also recorded: enhances the pathogenicity of the BP10 line
[1]; BP10 line stimulated without APC using PMA (50 ng/ml) and Ionomycin (500 ng/ml)
  severity of adoptive EAE: significantly more severe
[1]; dose-response, BP10 line stimulated in presence of 5 μg/ml
  severity of adoptive EAE: ineffective
[1]; dose-response, BP10 line stimulated in presence of 25 μg/ml
  severity of adoptive EAE: enhancing effect similar to that of 50 μg/ml
